Experiment [1] can be described thus: Antioxidant action on monolayer liposome (iron-ascorbic acid, AAPH, lipoxigenase systems). Conditions: tocotrienol compared with tocopherol. The protocol:
(§1) Strength of antioxidant action of tocotrienol and tocopherol on monolayer liposome and erythrocyte membrane was evaluated by using iron-ascorbic acid, 2, 2′-azobis (2-amidinopropane).2HCl (AAPH) which is a water-soluble radical generator and lipoxigenase reaction system.

Experiment [2] concerns human erythrocyte membrane. In words: Reactivity with AAPH radicals on human erythrocyte membrane (residual rate). The class given is cell-based. Particulars: for Residual Rate (%) 1 hr. / Residual Rate (%) 2 hrs. / Residual Rate (%) 3 hrs.: 10% erythrocyte suspension, 75 mM AAPH, 37° C.; for Residual Rate (%) 1 hr.: after 1 hour; for Residual Rate (%) 2 hrs.: after 2 hours; for Residual Rate (%) 3 hrs.: after 3 hours. On the procedure: Human erythrocytes to be tested were prepared from blood of a healthy person by treating the blood according the method disclosed in Lipids, vol. 33 (6), p589-595 (1998). Actually, blood drawn from a healthy person was put in a test tube containing EDTA-2Na (1 mg/ml), and certrifuged at 1000×g at 4° C. for 20 minutes to be separated into erythrocytes and plasma. The erythrocytes were washed three times with 5 parts by volume of phosphate-buffered saline (PBS), and centrifuged exactly at 1000×g for 20 minutes to obtain a definite volume of packed erythrocytes.
The erythrocytes were subjected to hemolysis test according to the method of Miki et al., Arch. Biochem. Biophys. 258, p373-380. 0.5 ml of the human erythrocytes were suspended into 4 parts by volume of PBS, and a-tocotrienol ethanol solution was added thereto wherein the final ethanol concentration was made 0.5% (v/v) or less. After incubating the mixture at 37° C. for 30 minutes, the erythrocytes were washed. 10% suspension of the erythrocytes was incubated again. To the suspension, 75 mM AAPH-PBS solution was added, and oxidation was carried out at 37° C. in a dark place with stirring. The state of erythrocyte membrane, which was destroyed by radicals to induce hemolysis, was observed.
Similarly, the human erythrocytes were incubated with α-tocopherol for 30 minutes, washed, and 10% suspension of the erythrocytes was incubated again. To the suspension, 75 mM AAPH was added, and the state of erythrocyte membrane, which was destroyed by radicals to induce hemolysis, was observed.
Reactivity of α-tocotrienol and α-tocopherol with radicals on human erythrocyte membrane was examined, and residual rate of α-tocotrienol and α-tocopherol in solution was measured after 1, 2 and 3 hours.

The subject of a further experiment is Human erythrocytes. In words: Deformability of erythrocytes by Micro-Channel Array Flow Analyzer (MC-FAN). Conditions: for Passage Time: Table 1, control 54 ± 3; for Ratio to Control: passage time relative to control (1.00). The class given is cell-based. The protocol:
Deformability of erythrocytes was measured using a Micro-Channel Array Flow Analyzer (MC-FAN) illustrated in FIG. 3 which measures time for passing total volume of an erythrocyte (8-10 μm) through a pore (6 μm) of a microchip.
Human erythrocytes were incubated with 43.3 μM α-tocotrienol for 30 minutes to incorporate the α-tocotrienol into the erythrocytes, and deformability of the erythrocytes was measured by the MC-FAN. As a control sample, human erythrocytes without α-tocotrienol were prepared, and the deformability was also measured.
In comparison, human erythrocytes were incubated with 40 μM α-tocopherol (vitamin E, Tokyo Kasei Kogyo) for 30 minutes to incorporate the α-tocopherol into the erythrocytes, and deformability of the erythrocytes was measured by the MC-FAN. As a result, passage time of the erythrocyte with a -tocopherol was 36 sec/ 100 μl RBC.

Experiment [3] relates to hemolysis by dialuric acid. Particulars: amount relative to comparator; cited from earlier work.
For a further experiment, the system named is erythrocyte membrane. Briefly: Antioxidant action on erythrocyte membrane (iron-ascorbic acid, AAPH, lipoxigenase systems). The class given is cell-based. Conditions: tocotrienol compared with tocopherol. On the procedure:
as §1

Take tocopherol [reference compound]: the “strength of antioxidant action on monolayer liposome” value in experiment [1] is “difference in the strength of antioxidant action on monolayer liposome was not found”.

On to `CC(C)=CCC/C(C)=C/CC/C(C)=C/CC[C@]1(C)CCc2c(C)c(O)c(C)c(C)c2O1` [α-tocotrienol], for which, in experiment [2], the “Residual Rate (%) 1 hr.” value amounted to 12 ± 2%, the “Residual Rate (%) 2 hrs.” value is 7 ± 1% and the “Residual Rate (%) 3 hrs.” value was 4 ± 1%. In addition, in the experiment on Human erythrocytes, the “Passage Time” value amounted to 26 ± 5 sec/100 μ1 RBC and the “Ratio to Control” value was 0.47. Also, the “passage time of the erythrocyte” value in the experiment with Human erythrocytes (incubated with 43.3 μM for 30 minutes, without compound 54) was 26 sec/100 μl erythrocyte (RBC). The “inhibition of hemolysis by dialuric acid” value in experiment [3] was “inhibit hemolysis by dialuric acid even in an amount of one third”.

On to tocotrienol, for which the “strength of antioxidant action on monolayer liposome” value in experiment [1] is given as “difference in the strength of antioxidant action on monolayer liposome was not found”. In the experiment on erythrocyte membrane, the “strength of antioxidant action on erythrocyte membrane” value is “much greater than that of tocopherol”. For the same compound, the “incorporation (reaction rate with radicals) relative to tocopherol” value in experiment [2] (from residual rates on human erythrocyte membrane) is “about three to four times as much as that of tocopherol”. The “ability of improving the deformability of erythrocytes” value with Human erythrocytes (comparison of tocotrienol with tocopherol) was “more excellent than tocopherol”.

Regarding `Cc1c(C)c2c(c(C)c1O)CC[C@@](C)(CCC[C@H](C)CCC[C@H](C)CCCC(C)C)O2` [α-tocopherol, reference compound], in experiment [2], the “Residual Rate (%) 1 hr.” value came out at 41 ± 3%, the “Residual Rate (%) 2 hrs.” value came to 25 ± 4% and the “Residual Rate (%) 3 hrs.” value is listed as 19 ± 3%. In the experiment with Human erythrocytes, the “Passage Time” value was determined as 34 ± 5 sec/100 μ1 RBC and the “Ratio to Control” value stood at 0.63. Also, in the experiment on Human erythrocytes (incubated with 40 μM for 30 minutes), the “passage time of the erythrocyte” value was 36 sec/ 100 μl RBC.
